Assay results published in patent publication US20240254135A1, “POLYPHENOL COMPOUNDS” (Epirium Bio Inc., priority 2022, published 2024).
Values belong to the compound of their own block, whether it stands above or below them.

Experiments:
PGC-1α = assay: In vitro PGC-1α expression in differentiated C2C12 cells (cell ELISA); type: cell-based
Experimental: Culture conditions: DMEM containing 25 mM glucose with 10% FBS supplementation; grown at 37° C. and 5% CO2.
Drugs: (+)Epicatechin, AICAR (direct activator of AMPK).
Assay Conditions: C2C12 cells were cultured in DMEM supplemented in 10% FBS up to 80% confluence. The cells were further trypsinized and seeded into a 96 well plate at a density of 5000 cells/well (well volume—100 μL) (Day 0). Following attachment, the cells were allowed to reach 80-90% confluence in the plate (typically 48 hours post seeding) and further differentiated using DMEM+2% Horse Serum (200 μL/well). The media was changed every day or at least every alternate day for 5 days to allow myoblasts to differentiate into myotubes. On day 7 (post seeding), the cells were treated with standards and test compounds for PGC-1 α assay.
PGC-1α assay: For the detection of PGC-1α, the cells were incubated with 0.5 μg/ml primary antibody (Merck, WH0010891M3) in PBS-T containing 5% BSA at 4° C. overnight. The cells were then washed three times with PBS-T for 5 minutes and incubated with 1:1000 dilution secondary antibody (Anti-rabbit IgG, HRP-linked Antibody, Cell Signaling) in PBS-T with 1% BSA for 1 hour at RT. Cells were washed three times with PBS-T for 5 minutes The cells were incubated with 100 μl TMB substrate solution for 30 minutes and the reaction was stopped with 100 μl of 2N H2SO4. […] (For plate optical density calculations, a background correction was taken at 540 nm). The final PGC-1α activation % is average of activation of 6 replicates.

[1] = biological target: T1, mitochondrial ATP synthase (Mus musculus, UniProt P56480+Q03265); assay: ATP hydrolysis (proton release/ECAR, Seahorse XF96) in fresh heart mitochondria; type: biochemical; details: for changes in ATP hydrolysis: fresh heart mitochondria (FIG. 1, FIG. 2)
T1 construct: from tissue; host or cells: mouse heart, isolated mitochondria (fresh or frozen)
Description: To assess whether the fraction of synthetic and reverse hydrolytic activities of mitochondrial ATP synthase can be measured in the same preparation, a protocol was developed to monitor changes in oxygen consumption and proton release in response to changes in mitochondrial ATP synthase activity. The proton released and the concomitant changes in the pH can be monitored using the ECAR (extracellular acidification) channel in the Agilent Seahorse XF analyzer using isolated mitochondria, to ensure that the changes in pH cannot be attributed to glycolysis or other contributors to ECAR.
Mice were anesthetized with isoflurane followed by a cervical dislocation, and the heart was immediately removed and placed in ice cold relaxation buffer (5 mM sodium pyrophosphate, 100 mM KCl, 5 mM EGTA, 5 mM HEPES; pH 7.4). The heart was squeezed with tweezers to remove blood, minced with scissors, and then placed in a glass-glass Dounce homogenizer with 3 mL of HES homogenization buffer (250 mM sucrose, 5 mM HEPES, 1 mM EDTA; pH to 7.2, adjusted with KOH). The heart tissue was homogenized first with the loose pestle and followed by the tight pestle. The homogenized tissue was placed in a pre-chilled 15 ml conical tube and centrifuged at 900×g (4° C.) for 10 minutes (min). The supernatant was removed, placed in a new tube and centrifuged again at 900×g for 10 min. The supernatant was then transferred to 2 mL microcentrifuge tubes and centrifuged at 10,000×g (4° C.) for 10 min. The mitochondrial pellets were re-suspended in ice cold HES buffer and mitochondrial protein was measured with a BCA assay (Pierce). The concentrated mitochondrial pellet was stored on ice.
Heart mitochondria (0.75-1.5 μg) were loaded into a Seahorse XF96 microplate in 20 μL of MAS (70 mM Sucrose, 220 mM Mannitol, 5 mM KH2PO4, 5 mM MgCl2, 1 mM EGTA, 2 mM HEPES; pH 7.2) plus 1% free fatty acid BSA containing substrates. The loaded plate was centrifuged at 2,000×g for 5 min at 4° C. (no brake) and an additional 130 μL of MAS was added to each well. When assessing compounds effect on respirometry, the compounds were added at this point at the indicated concentration in MAS buffer. To avoid disrupting mitochondrial adherence to the bottom of the plate, MAS was added using a multichannel pipette pointed at a 45° angle to the top of the well-chamber, as instructed by the manufacturer. Substrate concentrations in the well when assay was starting in state 4 were as follow: (i) 5 mM pyruvate+5 mM malate or ii) 5 mM succinate+2 μM rotenone. Substrate concentrations in the well when assay was starting in state 3 were as follow: (i) 5 mM pyruvate+5 mM malate+4 mM ADP or ii) 5 mM succinate+2 μM rotenone+4 mM ADP. Injections were performed as indicated in the figure descriptions at the following final concentration in the well: oligomycin (3.5 μM), FCCP (4 μM), Antimycin A (2 μM). Compounds were added at the indicated concentration.
ATP hydrolysis capacity or state 4 acidification was measured using Seahorse XF96 as described in Divakaruni et al. (2018) Anal Biochem 552:60-65 and Acin-Perez et al. (2021) Life 11(9):949, in MAS (70 mM Sucrose, 220 mM Mannitol, 5 mM KH2PO4, 5 mM MgCl2, 1 mM EGTA, 2 mM HEPES; pH 7.2). Plates were loaded with 0.75-1.5 μg of mouse heart mitochondria, or 25 μg of cell lysate. Cell lysates were prepared by subjecting the samples to 4 cycles of free thaw (liquid nitrogen—37° C. water bath) before measuring protein concentration. When assessing compounds effect on respirometry, the compounds were added in MAS after sample centrifugation. Initial respiration of the samples was sustained by the addition of 5 mM succinate+2 μM rotenone in the MAS after centrifugation. Injections were performed at the following final concentration in the well: Antimycin A (2 μM), oligomycin (5 μM), FCCP (1 μM), ATP (20 mM). To assess maximal ATP concentration, ATP was injected consecutively. […]

[2] = Table 3, differentiated C2C12 cells, 0.001 nM, DMSO control = 100%, OD@650 nm

changes in ATP hydrolysis [1]: very mild changes
SMILES: COc1cc(C2Oc3ccccc3CC2O)ccc1F (single isomer, unassigned) [Compound 75b, 2-(4-fluoro-3-methoxyphenyl)chroman-3-ol]
% Activity (PGC-1α expression) (PGC-1α; Table 3, differentiated C2C12 cells, 0.0001 nM, DMSO control = 100%): 118% | % Activity (PGC-1α expression) (PGC-1α; [2]): 125% | % Activity (PGC-1α expression) (PGC-1α; Table 3, differentiated C2C12 cells, 0.01 nM, DMSO control = 100%): 122% | % Activity (PGC-1α expression) (PGC-1α; Table 3, differentiated C2C12 cells, 0.1 nM, DMSO control = 100%): 116% | % Activity (PGC-1α expression) (PGC-1α; Table 3, differentiated C2C12 cells, 1 nM, DMSO control = 100%): 120% | % Activity (PGC-1α expression) (PGC-1α; Table 4, differentiated C2C12 cells, 0.01 nM, OD at 5 minutes): 130%

SMILES: Oc1cc(O)c2c(c1)OC(c1ccc(O)c(F)c1)C(O)C2 (single isomer, unassigned) [Compound 76b, 2-(3-fluoro-4-hydroxyphenyl)chromane-3,5,7-triol]
% Activity (PGC-1α expression) (PGC-1α; Table 5, differentiated C2C12, 5000 cells/well, 0.01 nM, DMSO = 100): 128%

changes in ATP hydrolysis [1]: very mild changes | decrease in hydrolysis ([1]; fresh mitochondria, Complex II): 20%
SMILES: Oc1ccc2c(c1)OC(c1ccc(O)c(C(F)(F)F)c1)C(O)C2 (single isomer, unassigned) [Compound 77b, 2-(4-hydroxy-3-(trifluoromethyl)phenyl)chromane-3,7-diol]
% Activity (PGC-1α expression) (PGC-1α; Table 6, C2C12 cells, 5000 cells/well, 0.01 nM): 138% | % Activity (PGC-1α expression) (PGC-1α; Table 7, C2C12 cells, 5000 cells/well, 0.01 nM, DMSO = 100): 135% | change in hydrolysis ([1]; fresh mitochondria, Complex I): no clear change

SMILES: Oc1cc(O)c2c(c1)OC(c1ccccc1)C(O)C2 (single isomer, unassigned) [Compound 78a, 2-phenylchromane-3,5,7-triol]
% Activity (PGC-1α expression) (PGC-1α; Table 8, C2C12 cells, 5000 cells/well, 0.01 nM, DMSO = 100): 128%

SMILES: Oc1cc(O)c2c(c1)O[C@H](c1ccc(O)c(O)c1)[C@H](O)C2 [Epicatechin, (+)Epicatechin, reference compound]
% Activity (PGC-1α expression) (PGC-1α; [2]): 119% | % Activity (PGC-1α expression) (PGC-1α; Table 4, differentiated C2C12 cells, 0.001 nM, OD at 5 minutes): 120% | % Activity (PGC-1α expression) (PGC-1α; Table 5, differentiated C2C12, 5000 cells/well, 0.001 nM, DMSO = 100): 133% | % Activity (PGC-1α expression) (PGC-1α; Table 6, C2C12 cells, 5000 cells/well, 0.001 nM): 127% | % Activity (PGC-1α expression) (PGC-1α; Table 7, C2C12 cells, 5000 cells/well, 0.001 nM, DMSO = 100): 133% | % Activity (PGC-1α expression) (PGC-1α; Table 8, C2C12 cells, 5000 cells/well, 0.001 nM, DMSO = 100): 139% | decrease in hydrolysis ([1]; mitochondria preparation and substrate not given): 10-25%
